Laboratory results as given in patent US9624214B2, “Amino-substituted imidazo[1,2-a]pyridinecarboxamides and their use” (BAYER PHARMA AKTIENGESELLSCHAFT, priority 2012, dated 2017).
Counter-ions that a name gives are not always drawn.

What follows are molecules tested against T1, recombinant guanylate cyclase reporter cell line (Rattus norvegicus, UniProt P19686+P20595) (assay: B-2. Action on recombinant guanylate cyclase reporter cell line). Details: MEC = minimal effective concentration; in some cases mean values from individual determinations.
T1 construct: expressed in transfected cells
T1 sequence (P20595 1-619): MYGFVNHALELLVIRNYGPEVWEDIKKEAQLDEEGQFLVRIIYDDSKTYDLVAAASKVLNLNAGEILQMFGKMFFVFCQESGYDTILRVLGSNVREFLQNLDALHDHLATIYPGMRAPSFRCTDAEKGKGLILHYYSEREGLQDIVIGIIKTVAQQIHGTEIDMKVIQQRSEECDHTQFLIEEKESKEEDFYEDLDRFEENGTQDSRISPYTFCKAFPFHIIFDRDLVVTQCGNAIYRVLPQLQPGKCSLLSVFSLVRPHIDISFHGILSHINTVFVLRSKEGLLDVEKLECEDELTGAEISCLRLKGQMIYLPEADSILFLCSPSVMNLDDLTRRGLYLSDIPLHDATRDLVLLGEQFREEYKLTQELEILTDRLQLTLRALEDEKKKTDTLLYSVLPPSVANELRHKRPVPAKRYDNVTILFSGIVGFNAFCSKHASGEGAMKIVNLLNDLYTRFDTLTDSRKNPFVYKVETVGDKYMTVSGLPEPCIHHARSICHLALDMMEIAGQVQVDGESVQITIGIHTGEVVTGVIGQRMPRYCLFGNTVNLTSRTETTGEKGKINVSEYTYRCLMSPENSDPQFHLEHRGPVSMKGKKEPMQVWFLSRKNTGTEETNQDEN
T1 sequence (P19686 1-690): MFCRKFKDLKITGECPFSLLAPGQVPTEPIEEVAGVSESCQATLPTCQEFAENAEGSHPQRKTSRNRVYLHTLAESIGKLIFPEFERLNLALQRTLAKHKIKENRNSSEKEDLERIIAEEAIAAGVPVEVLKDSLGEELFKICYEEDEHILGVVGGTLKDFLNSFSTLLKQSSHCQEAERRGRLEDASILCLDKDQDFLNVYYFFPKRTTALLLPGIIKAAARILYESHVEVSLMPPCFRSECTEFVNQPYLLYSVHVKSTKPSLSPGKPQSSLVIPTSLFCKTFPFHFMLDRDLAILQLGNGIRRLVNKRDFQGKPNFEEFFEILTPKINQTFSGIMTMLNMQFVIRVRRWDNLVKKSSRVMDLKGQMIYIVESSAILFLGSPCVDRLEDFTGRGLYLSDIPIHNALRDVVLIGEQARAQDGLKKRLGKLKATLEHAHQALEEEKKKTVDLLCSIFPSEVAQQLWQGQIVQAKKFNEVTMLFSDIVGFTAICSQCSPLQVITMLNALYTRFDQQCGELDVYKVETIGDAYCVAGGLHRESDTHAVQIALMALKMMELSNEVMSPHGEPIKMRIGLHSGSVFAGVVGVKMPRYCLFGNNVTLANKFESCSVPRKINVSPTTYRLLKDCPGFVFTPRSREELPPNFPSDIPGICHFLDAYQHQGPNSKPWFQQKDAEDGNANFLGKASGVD
Type: cell-based
In short: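 Each compound is applied to a cell line engineered with a reporter for recombinant guanylate cyclase. The minimal effective concentration is then noted, in part as a mean across separate determinations.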

`Cc1nc2c(OCc3c(F)cccc3F)cccn2c1C(=O)NCC(N)CC(F)(F)F` (single isomer, unassigned) [Example 126, ent-N-(2-Amino-4,4,4-trifluorobutyl)-8-[(2,6-difluorobenzyl)oxy]-2-methylimidazo[1,2-a]pyridine-3-carboxamide] and `Cc1nc2c(OCc3c(F)cccc3F)cccn2c1C(=O)NCC(N)C(F)(F)F` (single isomer, unassigned) [Example 208, ent-N-(2-Amino-3,3,3-trifluoropropyl)-8-[(2,6-difluorobenzyl)oxy]-2-methylimidazo[1,2-a]-pyridine-3-carboxamide] are the same in MEC: 0.30 µM for the first, 0.30 µM for the second.

Compared with `Cc1nc2c(OCc3c(F)cccc3F)cccn2c1C(=O)NCC(N)CC(F)(F)F` (single isomer, unassigned) [Example 127, ent-N-(2-Amino-4,4,4-trifluorobutyl)-8-[(2,6-difluorobenzyl)oxy]-2-methylimidazo[1,2-a]pyridine-3-carboxamide], `Cc1nc2c(OCc3c(F)cccc3F)cccn2c1C(=O)NCC(N)C(F)(F)F` (single isomer, unassigned) [Example 209, ent-N-(2-Amino-3,3,3-trifluoropropyl)-8-[(2,6-difluorobenzyl)oxy]-2-methylimidazo[1,2-a]-pyridine-3-carboxamide] is 3.3-fold lower in MEC: 1.00 µM for the first, 0.30 µM for the second.

Going from `Cc1cc(OCc2c(F)cccc2F)c2nc(C)c(C(=O)NCC(N)CC(F)(F)F)n2c1` (single isomer, unassigned) [Example 128, ent-N-(2-Amino-4,4,4-trifluorobutyl)-8-[(2,6-difluorobenzyl)oxy]-2,6-dimethylimidazo[1,2-a]-pyridine-3-carboxamide] to `Cc1nc2c(OCc3c(F)cccc3F)cc(Cl)cn2c1C(=O)NCC(N)CC(F)(F)F` (single isomer, unassigned) [Example 192, ent-N-(2-Amino-4,4,4-trifluorobutyl)-6-chloro-8-[(2,6-difluorobenzyl)oxy]-2-methylimidazo[1,2-a]pyridine-3-carboxamide], the MEC rises from 0.10 µM to 0.30 µM (3-fold).

Going from `Cc1cc(OCc2c(F)cccc2F)c2nc(C)c(C(=O)NCC(N)CC(F)(F)F)n2c1` (single isomer, unassigned) [Example 129, ent-N-(2-Amino-4,4,4-trifluorobutyl)-8-[(2,6-difluorobenzyl)oxy]-2,6-dimethylimidazo[1,2-a]-pyridine-3-carboxamide] to `Cc1nc2c(OCc3c(F)cccc3F)cc(Cl)cn2c1C(=O)NCC(N)CC(F)(F)F` (single isomer, unassigned) [Example 193, ent-N-(2-Amino-4,4,4-trifluorobutyl)-6-chloro-8-[(2,6-difluorobenzyl)oxy]-2-methylimidazo[1,2-a]pyridine-3-carboxamide], the MEC rises from 0.10 µM to 1.00 µM (10-fold).

First: Cc1nc2c(OCc3c(F)cccc3F)cccn2c1C(=O)NC(C)[C@H](C)N (single isomer, unassigned) [Example 174]
Second: Cc1nc2c(OCc3c(F)cccc3F)cccn2c1C(=O)NC(C)[C@@H](C)N (single isomer, unassigned) [Example 176]
The MEC of the first is 3.3-fold lower: 0.30 µM for the first, 1.00 µM for the second.

`Cc1nc2c(OCc3c(F)cccc3F)cccn2c1C(=O)NC(C)[C@H](C)N` (single isomer, unassigned) [Example 175] and `Cc1nc2c(OCc3c(F)cccc3F)cccn2c1C(=O)NC(C)[C@@H](C)N` (single isomer, unassigned) [Example 177] are the same in MEC: 1.00 µM for the first, 1.00 µM for the second.

Compared with `Cc1nc2c(OCC3CCCCC3)cccn2c1C(=O)NC(CN)c1ccc(F)c(F)c1` (single isomer, unassigned) [Example 178, ent-N-[2-Amino-1-(3,4-difluorophenyl)ethyl]-8-(cyclohexylmethoxy)-2-methylimidazo[1,2-a]-pyridine-3-carboxamide], `Cc1nc2c(OCc3c(F)cccc3F)cccn2c1C(=O)NC12CNCCC1C2` (single isomer, unassigned) [Example 184, ent-N-(3-Azabicyclo[4.1.0]hept-1-yl)-8-[(2,6-difluorobenzyl)oxy]-2-methylimidazo[1,2-a]pyridine-3-carboxamide] is 3.3-fold higher in MEC: 0.30 µM for the first, 1.00 µM for the second.

`Cc1nc2c(OCC3CCCCC3)cccn2c1C(=O)NC(CN)c1ccc(F)c(F)c1` (single isomer, unassigned) [Example 179, ent-N-[2-Amino-1-(3,4-difluorophenyl)ethyl]-8-(cyclohexylmethoxy)-2-methylimidazo[1,2-a]-pyridine-3-carboxamide] and `Cc1nc2c(OCc3c(F)cccc3F)cccn2c1C(=O)NC12CNCCC1C2` (single isomer, unassigned) [Example 185, ent-N-(3-Azabicyclo[4.1.0]hept-1-yl)-8-[(2,6-difluorobenzyl)oxy]-2-methylimidazo[1,2-a]pyridine-3-carboxamide] are the same in MEC: 1.00 µM for the first, 1.00 µM for the second.

Going from `CCC(C)(N)CNC(=O)c1c(C)nc2c(OCc3c(F)cccc3F)cc(Cl)cn12` (single isomer, unassigned) [Example 194, ent-N-(2-Amino-2-methylbutyl)-6-chloro-8-[(2,6-difluorobenzyl)oxy]-2-methylimidazo[1,2-a]-pyridine-3-carboxamide] to `COCC(C)(N)CNC(=O)c1c(C)nc2c(OCc3c(F)cccc3F)cc(Cl)cn12` (single isomer, unassigned) [Example 196, ent-N-(2-Amino-3-methoxy-2-methylpropyl)-6-chloro-8-[(2,6-difluorobenzyl)oxy]-2-methylimidazo[1,2-a]pyridine-3-carboxamide], the MEC rises from 0.10 µM to 1.00 µM (10-fold).

Compared with `CCC(C)(N)CNC(=O)c1c(C)nc2c(OCc3c(F)cccc3F)cc(Cl)cn12` (single isomer, unassigned) [Example 195, ent-N-(2-Amino-2-methylbutyl)-6-chloro-8-[(2,6-difluorobenzyl)oxy]-2-methylimidazo[1,2-a]-pyridine-3-carboxamide], `COCC(C)(N)CNC(=O)c1c(C)nc2c(OCc3c(F)cccc3F)cc(Cl)cn12` (single isomer, unassigned) [Example 197, ent-N-(2-Amino-3-methoxy-2-methylpropyl)-6-chloro-8-[(2,6-difluorobenzyl)oxy]-2-methylimidazo[1,2-a]pyridine-3-carboxamide] is 3.3-fold higher in MEC: 0.30 µM for the first, 1.00 µM for the second.

Compared with `COCC(C)(N)CNC(=O)c1c(C)nc2c(OCc3c(F)cccc3F)cc(C)cn12` (single isomer, unassigned) [Example 198, ent-N-(2-Amino-3-methoxy-2-methylpropyl)-8-[(2,6-difluorobenzyl)oxy]-2,6-dimethylimidazo-[1,2-a]pyridine-3-carboxamide], `CC[C@](C)(N)CNC(=O)c1c(C)nc2c(OCc3c(F)cccc3F)cc(C)cn12` (single isomer, unassigned) [Example 200] is 7.5-fold lower in MEC: 0.30 µM for the first, 0.04 µM for the second.

`COCC(C)(N)CNC(=O)c1c(C)nc2c(OCc3c(F)cccc3F)cc(C)cn12` (single isomer, unassigned) [Example 199, ent-N-(2-Amino-3-methoxy-2-methylpropyl)-8-[(2,6-difluorobenzyl)oxy]-2,6-dimethylimidazo-[1,2-a]pyridine-3-carboxamide] and `COCC(CN)NC(=O)c1c(C)nc2c(OCc3c(F)cccc3F)cc(C)cn12` (single isomer, unassigned) [Example 210, ent-N-(1-amino-3-methoxypropan-2-yl)-8-[(2,6-difluorobenzyl)oxy]-2,6-dimethylimidazo[1,2-a]-pyridine-3-carboxamide Trifluoroacetate] are the same in MEC: 0.30 µM for the first, 0.30 µM for the second.

`Cc1nc2c(OCc3c(F)cccc3F)cccn2c1C(=O)NCC(C)(N)CC(C)C` (single isomer, unassigned) [Example 203, ent-N-(2-Amino-2,4-dimethylpentyl)-8-[(2,6-difluorobenzyl)oxy]-2-methylimidazo[1,2-a]pyridine-3-carboxamide] was tested, and the MEC was 0.10 µM.
`Cc1nc2c(OCc3c(F)cccc3F)cccn2c1C(=O)NCC(C)(N)CC(C)C` (single isomer, unassigned) [Example 204, ent-N-(2-Amino-2,4-dimethylpentyl)-8-[(2,6-difluorobenzyl)oxy]-2-methylimidazo[1,2-a]pyridine-3-carboxamide] gave an MEC of 1.00 µM.
